Test results reported in patent US11229636B2, “Substituted tetrahydroquinolinone compounds as ROR gamma modulators” (Aurigene Discovery Technologies Limited, priority 2015, dated 2022).

Assays:
[1] = molecular target: ROR gamma ligand binding domain (Homo sapiens (Human), UniProt P51449); test: ROR gamma luciferase reporter assay (GAL4-ROR gamma LBD, HEK293 cells); format: cell-based; conditions: 48 hours treatment, read-out: RORγ luciferase Reporter assay: IC50 (nM) (in range)
Protocol: The Ligand Binding Domain (LBD) of ROR gamma was cloned into pFN26A (BIND) hRluc-neo Flexi vector (Promega) which expresses a fusion protein comprised of a DNA binding domain of the yeast GAL4 gene, a linker segment and ROR gamma ligand binding domain. For the reporter assay 0.02×10^6 HEK293 cells were seeded per well in a 96 well plate in complete media and incubated overnight in an incubator with 5% CO2 at 37° C. before transfection. Cells were then co-transfected with pFN26A hRluc-neo Flexi vector containing the LBD of ROR gamma and pGL4.35 [luc2P/9XGAL4 UAS/Hygro] Vector (Promega) in low serum media. Post transfection and recovery, cells were treated with the test compounds for 48 hours. The assay was terminated using the Bright-Glo Luciferase assay system from Promega and the Luminescence was measured using a luminescence reader. The luminescence values were used to calculate the potency of the compounds.

RORγ LBD = RORγ LBD (Homo sapiens (Human), UniProt P51449); test: ROR gamma radio-ligand binding assay (3H 25-Hydroxycholesterol competitive displacement, dextran charcoal method); conditions: for inhibition at 1 µM: 1 μM compound; for inhibition at 10 µM: 10 μM compound; for IC50: in range
Protocol: Gene corresponding to the ligand binding domain of RORγ (247-497 amino acids) was sub-cloned into pGEX4T1 vector. Transformants of E. coli BL21 (DE3) containing pGEX4T1-RORγ (247-497) were grown to an OD of 0.8 at 37° C. and induced with 0.5 mM isopropyl-β-D-thiogalactopyranoside (IPTG) for 18 hours at 18° C. Cells were harvested and resuspended in 20 mM Tris-HCl (pH 8.5), 0.3 M NaCl, 10% Glycerol, 2 mM β-Me (β-Mercaptoethanol), 2 mM CHAPS, protease inhibitors, 0.6 mM PMSF and Lysozyme. Supernatant of lysate was passed through glutathione sepharose 4B affinity beads (GE health care) pre-equilibrated with 20 mM Tris-HCl (pH 8.5), 0.3 M NaCl, 10% Glycerol, 2 mM β-Me. RORγ was eluted using a gradient of reduced glutathione (3-20 mM). Fractions containing RORγ protein were pooled, concentrated and passed through Superdex 75 gel filtration (GE health care) column equilibrated with 20 mM Na-phosphate pH 8.0, 0.2 M NaCl, 10% glycerol. The peak fractions from gel filtration column were pooled and stored at −80° C. for Binding assay.
ROR gamma radioligand binding was performed using ^3H 25-Hydroxycholesterol in a competitive displacement assay using dextran charcoal method. Using 5 nM ^3H 25-Hydroxycholesterol with 300 ng RORγ LBD (in house expressed in E. coli) along with the compound were incubated in the binding buffer (50 mM HEPES, pH 7.5, 150 mM NaCl, 0.01% BSA and 5 mM MgCl2) for 30 min at room temperature. Then dextran-charcoal mixture (0.5% charcoal: 0.05% dextran) was used for separation and the supernatant was read on the Perkin Elmer Trilux Microbeta counter. Dose response curves were generated for 10 compound concentrations using GraphPad Prism software Version 5 (San Diego, Calif., USA) using non-linear regression curve fit for sigmoidal dose response (variable slope).

RORγ LBD, sequence (P51449 268-518): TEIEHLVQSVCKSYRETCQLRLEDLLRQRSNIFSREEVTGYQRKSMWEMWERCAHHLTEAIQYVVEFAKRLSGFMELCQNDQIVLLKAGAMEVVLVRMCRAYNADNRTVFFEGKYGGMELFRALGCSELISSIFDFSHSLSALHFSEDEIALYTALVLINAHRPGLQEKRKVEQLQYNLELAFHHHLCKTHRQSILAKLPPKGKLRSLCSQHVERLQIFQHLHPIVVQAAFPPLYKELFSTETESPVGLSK
ROR gamma ligand binding domain, sequence (P51449 269-508): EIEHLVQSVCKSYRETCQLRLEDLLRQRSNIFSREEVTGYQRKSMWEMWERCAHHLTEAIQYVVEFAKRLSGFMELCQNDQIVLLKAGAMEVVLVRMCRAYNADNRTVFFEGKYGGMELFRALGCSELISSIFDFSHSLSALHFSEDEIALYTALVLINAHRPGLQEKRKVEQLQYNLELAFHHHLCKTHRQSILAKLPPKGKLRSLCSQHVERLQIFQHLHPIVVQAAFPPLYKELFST

Structure (SMILES) | IC50 [1] [nM] | inhibition at 1 µM (RORγ LBD) [%] | inhibition at 10 µM (RORγ LBD) [%] | IC50 (RORγ LBD) [nM]
CCS(=O)(=O)c1ccc(CC(=O)Nc2ccc3c(n2)CCC(C)(c2nccn4c(C)cnc24)C3=O)cc1 (single isomer, unassigned) [compound 113, 2-(4-(ethylsulfonyl)phenyl)-N-(6-methyl-6-(3-methylimidazo[1,2-a]pyrazin-8-yl)-5-oxo-5,6,7,8-tetrahydroquinolin-2-yl)acetamide] | < 100 | – | – | –
CCS(=O)(=O)c1ccc(CC(=O)Nc2ccc3c(n2)CCC(C)(c2nccn4c(C)cnc24)C3=O)cc1 (single isomer, unassigned) [compound 114, 2-(4-(ethylsulfonyl)phenyl)-N-(6-methyl-6-(3-methylimidazo[1,2-a]pyrazin-8-yl)-5-oxo-5,6,7,8-tetrahydroquinolin-2-yl)acetamide] | > 500 | – | – | –
CCS(=O)(=O)c1ccc(CC(=O)Nc2ccc3c(n2)CCC(C)(c2cc(OC)nc(C)n2)C3=O)cc1 (single isomer, unassigned) [compound 115, 2-(4-(ethylsulfonyl)phenyl)-N-(6-(6-methoxy-2-methylpyrimidin-4-yl)-6-methyl-5-oxo-5,6,7,8-tetrahydroquinolin-2-yl)acetamide] | < 100 | – | – | –
CCS(=O)(=O)c1ccc(CC(=O)Nc2ccc3c(n2)CCC(C)(c2cc(OC)nc(C)n2)C3=O)cc1 (single isomer, unassigned) [compound 116, 2-(4-(ethylsulfonyl)phenyl)-N-(6-(6-methoxy-2-methylpyrimidin-4-yl)-6-methyl-5-oxo-5,6,7,8-tetrahydroquinolin-2-yl)acetamide] | > 500 | – | – | –
CCS(=O)(=O)c1ccc(CC(=O)Nc2ccc3c(n2)CCC(C)(c2nc(C)cn4ccnc24)C3=O)cc1 (single isomer, unassigned) [compound 117, 2-(4-(ethylsulfonyl)phenyl)-N-(6-methyl-6-(6-methylimidazo[1,2-a]pyrazin-8-yl)-5-oxo-5,6,7,8-tetrahydroquinolin-2-yl)acetamide] | > 500 | – | – | –
CCS(=O)(=O)c1ccc(CC(=O)Nc2ccc3c(n2)CCC(C)(c2nc(C)cn4ccnc24)C3=O)cc1 (single isomer, unassigned) [compound 118, 2-(4-(ethylsulfonyl)phenyl)-N-(6-methyl-6-(6-methylimidazo[1,2-a]pyrazin-8-yl)-5-oxo-5,6,7,8-tetrahydroquinolin-2-yl)acetamide] | < 100 | – | – | –
CCS(=O)(=O)c1ccc(CC(=O)Nc2ccc3c(n2)CCC(C)(c2cc(C)nc(C)n2)C3=O)nc1 (single isomer, unassigned) [compound 123, N-(6-(2,6-dimethylpyrimidin-4-yl)-6-methyl-5-oxo-5,6,7,8-tetrahydroquinolin-2-yl)-2-(5-(ethylsulfonyl)pyridin-2-yl)acetamide] | > 500 | – | – | –
CCS(=O)(=O)c1ccc(CC(=O)Nc2cc(C)c3c(n2)CCC(C)(c2cccc(OC)n2)C3=O)cc1 (centres unmarked) [Compound 19, 2-(4-(ethylsulfonyl)phenyl)-N-(6-(6-methoxypyridin-2-yl)-4,6-dimethyl-5-oxo-5,6,7,8-tetrahydroquinolin-2-yl)acetamide] | – | 98 | 98 | 150 to 300
CCS(=O)(=O)c1ccc(CC(=O)Nc2cc(C)c3c(n2)CCC(C)(c2ccc4c(c2)OCO4)C3=O)cc1 (centres unmarked) [Compound 42, N-(6-(benzo[d][1,3]dioxol-5-yl)-4,6-dimethyl-5-oxo-5,6,7,8-tetrahydroquinolin-2-yl)-2-(4-(ethylsulfonyl)phenyl)acetamide] | – | 94 | 92 | < 150
CCS(=O)(=O)c1ccc(CC(=O)Nc2cc(C)c3c(n2)CCC(C)(c2ccc4c(c2)ncn4C)C3=O)cc1 (centres unmarked) [Compound 43, N-(4,6-dimethyl-6-(1-methyl-1H-benzo[d]imidazol-5-yl)-5-oxo-5,6,7,8-tetrahydroquinolin-2-yl)-2-(4-(ethylsulfonyl)phenyl)acetamide] | – | 82 | – | < 150
CCS(=O)(=O)c1ccc(CC(=O)Nc2ccc3c(n2)CCC(C)(n2nc(C)cc2C)C3=O)cc1 (centres unmarked) [Compound 46, N-(6-(3,5-dimethyl-1H-pyrazol-1-yl)-6-methyl-5-oxo-5,6,7,8-tetrahydroquinolin-2-yl)-2-(4-(ethylsulfonyl)phenyl)acetamide] | – | 56 | 92 | > 300
CCS(=O)(=O)c1ccc(CC(=O)Nc2cc(C)c3c(n2)CCC(C)(n2cccn2)C3=O)cc1 (centres unmarked) [Compound 47] | – | 82 | 98 | < 150
CCS(=O)(=O)c1ccc(CC(=O)Nc2cc(C)c3c(n2)CCC(C)(c2ncc(OC)cn2)C3=O)cc1 (centres unmarked) [Compound 61, 2-(4-(ethylsulfonyl)phenyl)-N-(6-(5-methoxypyrimidin-2-yl)-4,6-dimethyl-5-oxo-5,6,7,8-tetrahydroquinolin-2-yl)acetamide] | – | 90 | 74 | < 150
CCS(=O)(=O)c1ccc(CC(=O)Nc2cc(C)c3c(n2)CCC(C)(c2cccnc2O)C3=O)cc1 (centres unmarked) [Compound 84, 2-(4-(ethylsulfonyl)phenyl)-N-(6-(2-hydroxypyridin-3-yl)-4,6-dimethyl-5-oxo-5,6,7,8-tetrahydroquinolin-2-yl)acetamide] | – | 82 | 100 | 150 to 300
CCS(=O)(=O)c1ccc(CC(=O)Nc2cc(C)c3c(n2)CCC(C)(c2ncccc2O)C3=O)cc1 (centres unmarked) [Compound 85, 2-(4-(ethylsulfonyl)phenyl)-N-(6-(3-hydroxypyridin-2-yl)-4,6-dimethyl-5-oxo-5,6,7,8-tetrahydroquinolin-2-yl)acetamide] | – | 62 | 95 | > 300
CCS(=O)(=O)c1ccc(CC(=O)Nc2cc(C)c3c(n2)CCC(C)(c2c(C)ccnc2O)C3=O)cc1 (centres unmarked) [Compound 86, 2-(4-(ethylsulfonyl)phenyl)-N-(6-(2-hydroxy-4-methylpyridin-3-yl)-4,6-dimethyl-5-oxo-5,6,7,8-tetrahydroquinolin-2-yl)acetamide] | – | 72 | 100 | < 150
CCS(=O)(=O)c1ccc(CC(=O)Nc2ccc3c(n2)CC(C)(C)C(c2ncccc2O)C3=O)cc1 (centres unmarked) [Compound 87, 2-(4-(ethylsulfonyl)phenyl)-N-(6-(3-hydroxypyridin-2-yl)-7,7-dimethyl-5-oxo-5,6,7,8-tetrahydroquinolin-2-yl)acetamide] | – | 82 | 99 | 150 to 300
CCc1cc(C2(C)CCc3nc(NC(=O)Cc4ccc(S(=O)(=O)CC)cc4)ccc3C2=O)nc(C)n1 (centres unmarked) [Compound-131] | – | 51 | 42 | –
CCS(=O)(=O)c1ccc(CC(=O)Nc2cc(C)c3c(n2)CCC(C)(c2cc(C)nc(OC)n2)C3=O)cc1 (centres unmarked) [Compound-135, 2-(4-(ethylsulfonyl)phenyl)-N-(6-(2-methoxy-6-methylpyrimidin-4-yl)-4,6-dimethyl-5-oxo-5,6,7,8-tetrahydroquinolin-2-yl)acetamide] | – | 90 | 104 | < 150
CCS(=O)(=O)c1ccc(CC(=O)Nc2cc3c(cn2)C(=O)C(C)(c2cc(C)nc(C)n2)CC3)cc1 (centres unmarked) [compound 128, N-(7-(2,6-dimethylpyrimidin-4-yl)-7-methyl-8-oxo-5,6,7,8-tetrahydroisoquinolin-3-yl)-2-(4-(ethylsulfonyl)phenyl)acetamide] | – | 79 | 110 | < 150
CCc1nc(C)cc(C2(C)CCc3nc(NC(=O)Cc4ccc(S(=O)(=O)CC)cc4)ccc3C2=O)n1 (centres unmarked) [compound 132, N-(6-(2-ethyl-6-methylpyrimidin-4-yl)-6-methyl-5-oxo-5,6,7,8-tetrahydroquinolin-2-yl)-2-(4-(ethylsulfonyl)phenyl)acetamide] | – | 99 | 103 | < 150
CCc1cc(C2(C)CCc3nc(NC(=O)Cc4ccc(S(=O)(=O)CC)cc4)ccc3C2=O)nc(CC)n1 (centres unmarked) [compound 133, N-(6-(2,6-diethylpyrimidin-4-yl)-6-methyl-5-oxo-5,6,7,8-tetrahydroquinolin-2-yl)-2-(4-(ethylsulfonyl)phenyl)acetamide] | – | 96 | 109 | < 150
